For five compounds, Antibiotic susceptibility profile, MIC and % RBC lysis results are on record in paper PMC9186412, “Rational Framework for the Design of Trp- and Arg-Rich Peptide Antibiotics Against Multidrug-Resistant Bacteria” (Frontiers in Microbiology, 2022).

Data set [1] has as its system CDC AR isolates. Further details: key: S (green), susceptible; I (blue), intermediate; R (red), resistant. The settings on record: data provided by the CDC, ref CDC, cited from earlier work. The source says: Supplement Table_3.XLSX, sheet "CDC AR isolates profiles" | column: G(-) strains
A further data set has as its system S. aureus. Briefly: microbe, parasite or virus in culture. Format: cell-based. The settings on record: Staphylococcus aureus, 18 h, MHB2, 18 h, 37°C. As to the method:
(§1) Bacterial clinical isolates, used for initial screening and in previous studies ([Deslouches et al., 2013]; [Lin et al., 2018]), were anonymously provided by the clinical microbiology laboratory of the University of Pittsburgh medical Center. The panel used for secondary screening was from [CDC (2013)] (Supplementary Table 3), with resistance profiles data. Bacteria are stored in lock-secured –80°C freezer and typically retrieved by obtaining single colonies on agar plates prior for subsequent liquid broth cultures. Suspensions of test bacteria were prepared from log phase of growth by diluting overnight cultures at 1:100 with fresh cation-adjusted MHB (MHB2, Millipore Sigma, United States) and incubating for additional 3–4 h. Bacteria were spun at 3,000 × g for 10 min and the pellet resuspended in test condition media (Millipore Sigma, United States) to determine bacterial turbidity using a Den-1B densitometer (Grant Instruments, United States) at 0.5 McFarland (unit of bacterial density) corresponding to […].
(§2) To examine antibacterial activity, we used minor modifications of a standard growth inhibition assay endorsed by the Clinical and Laboratory Standards Institute (CLSI), as previously described ([Deslouches et al., 2013]). Bacteria were incubated with each of the indicated peptides in MHB2. The bacterial cells were kept in an incubator for 18 h at 37°C, which is linked to a robotic system that feeds a plate reader every hour with one of 8 × 96-well plates. This set-up allows the collection of growth kinetic data at A 570 (absorbance at 570 nm) to examine growth inhibition in real time (BioTek Instruments, United States). […] The assays are typically repeated a second time. If the MIC is different, a third experimental trial is performed to confirm the MIC. To assess bactericidal properties of the peptide, the assay was modified by using 15% fetal bovine serum (FBS, for a more physiologically relevant test condition) mixed with 25% MHB2 and 60% PBS. Bacterial cells (colony forming unit/mL or CFU/mL) were enumerated after incubating treated bacteria for 3 h and plating serially diluted samples on broth agar medium at 37°C overnight. Minimum bactericidal concentration (MBC) was determined as the peptide concentration at which complete bacterial killing was observed. […] Data were analyzed using GraphPad Prism software.

The subject of a further data set is E. Faecium. The data set is described as follows: microbe, parasite or virus in culture. The format is cell-based, Enterococcus Facium. The settings on record: Enterococcus faecium, 18 h, MHB2, 18 h, 37°C. On the procedure:
as §1, §2

The test system of the next data set is P. aeruginosa. Briefly: microbe, parasite or virus in culture. The format is cell-based, Pseudomonas aeruginosa. The settings on record: Pseudomonas aeruginosa, 18 h, MHB2, 18 h, 37°C. On the procedure:
as §1, §2

The test system of a further data set is E. coli. The data set is described as follows: microbe, parasite or virus in culture. The format is cell-based, Escherichia coli. The settings on record: Escherichia coli, 18 h, MHB2, 18 h, 37°C. As to the method: as §1, §2
Another data set concerns Enterobacter spp. Briefly: microbe, parasite or virus in culture. Format: cell-based, Enterobacter spp (aerogenes, cloacae). The settings on record: Enterobacter, 18 h, UPMC, MHB2, 18 h, 37°C. On the procedure:
as §1, §2

Another data set has as its system K. pneumoniae. Briefly: microbe, parasite or virus in culture. Format: cell-based, Klebsiella pneumoniae. The settings on record: 18 h. On the procedure: as §1, §2
A further data set relates to A. baumannii. Briefly: microbe, parasite or virus in culture. The settings on record: Acinetobacter baumannii, 18 h, MHB2, 18 h, 37°C. The format is cell-based, Acinetobacter baumannii. On the procedure:
as §1, §2

Data set [2] has as its system CDC AR isolates. Further details: key: S (green), susceptible; I (blue), intermediate; R (red), resistant. The settings on record: Staphylococcus aureus SA461, CDC AR isolate; data provided by the CDC; ref CDC; cited from earlier work.
[3] abbreviates: Enterobacter cloacae E62, CDC AR isolate.
Where [4] appears, read: Enterobacter cloacae E544, CDC AR isolate.
[5] abbreviates: Enterobacter cloacae E545, CDC AR isolate.
[6] abbreviates: Enterobacter cloacae E546, CDC AR isolate.
The mark [7] stands for this setting: Escherichia coli EC541, CDC AR isolate.
Where [8] appears, read: Escherichia coli EC543, CDC AR isolate.
The mark [9] stands for this setting: Escherichia coli EC544, CDC AR isolate.
[10] abbreviates: Escherichia coli EC549, CDC AR isolate.
The mark [11] stands for this setting: Klebsiella pneumoniae KP542, CDC AR isolate.
[12] abbreviates: Klebsiella pneumoniae KP548, CDC AR isolate.
Where [13] appears, read: Klebsiella pneumoniae KP550, CDC AR isolate.
[14] abbreviates: Klebsiella pneumoniae KP552, CDC AR isolate.

≈ marks a conversion by molar mass, not a printed value. Read-outs that look alike come from different tables or passages of the source. Where no end group is shown, it is not given here. Some results are limits rather than exact numbers.

Turning to `Cc1nnc(SCC2=C(C(=O)O)N3C(=O)[C@@H](NC(=O)Cn4cnnn4)[C@H]3SC2)s1` [Cefazolin, reference compound], the Antibiotic susceptibility profile result in the data set with CDC AR isolates [1] (setting [3]), in the data set on CDC AR isolates [1] (setting [4]), with CDC AR isolates [1] (setting [5]), with CDC AR isolates [1] (setting [6]), in the data set with CDC AR isolates [1] (setting [7]) and in the data set with CDC AR isolates [1] (setting [8]) was “R” throughout. The Antibiotic susceptibility profile entry in the data set on CDC AR isolates [1] (setting [9]), in the data set with CDC AR isolates [1] (setting [10]), in the data set with CDC AR isolates [1] (setting [11]), with CDC AR isolates [1] (setting [12]), with CDC AR isolates [1] (setting [13]) and in the data set with CDC AR isolates [1] (setting [14]) was “R” throughout. The MIC in the data set on S. aureus (strain SA12212, UPMC) is 16 µM (≈ 7.27 µg/mL); in the data set with S. aureus (strain SA18710, UPMC), 16 µM (≈ 7.27 µg/mL); against S. aureus (strain SA49775) it was 2 µM (≈ 0.909 µg/mL); with S. aureus (strain SA-US300), 8 µM (≈ 3.64 µg/mL); in the data set with E. Faecium (strain EF23614, UPMC), > 16 µM; with E. Faecium (strain EF24670, UPMC), > 16 µM. The MIC in the data set on E. Faecium (strain EF26215, UPMC) worked out at 4 µM (≈ 1.82 µg/mL); in the data set with E. Faecium (strain EF26692, UPMC), 4 µM (≈ 1.82 µg/mL).

`CC(C)(O/N=C(\C(=O)N[C@@H]1C(=O)N2C(C(=O)[O-])=C(C[n+]3ccccc3)CS[C@H]12)c1csc(N)n1)C(=O)O` [Ceftazidime, reference compound]: the MIC against P. aeruginosa (strain PA97-5, UPMC) was 1 µM (≈ 0.547 µg/mL); in the data set on P. aeruginosa (strain PA129-5, UPMC), 2 µM (≈ 1.09 µg/mL); against E. coli (strain Eco25922) it was 1 µM (≈ 0.547 µg/mL); against E. coli (strain YDC107, UPMC), 4 µM (≈ 2.19 µg/mL); with E. coli (strain YDC337, UPMC), > 16 µM; with E. coli (strain YDC748, UPMC), > 16 µM. Moreover, the MIC in the data set with Enterobacter spp (strain EA518 (aerogenes)) was > 16 µM; against Enterobacter spp (strain EA596 (aerogenes)) it was > 16 µM; against Enterobacter spp (strain EC470 (cloacae)), > 16 µM; against Enterobacter spp (strain EC560 (cloacae)), > 16 µM; in the data set on K. pneumoniae (Klebsiella pneumoniae, strain KP43816, MHB2, 18 h, 37°C) it was 1 µM (≈ 0.547 µg/mL); with K. pneumoniae (Klebsiella pneumoniae, strain KPA5 (colistin-resistant), UPMC, MHB2, 18 h, 37°C), 12 µM (≈ 6.56 µg/mL). The MIC was 8 µM (≈ 4.37 µg/mL) in the data set with K. pneumoniae (Klebsiella pneumoniae, strain KPB3, UPMC, MHB2, 18 h, 37°C); > 16 µM with K. pneumoniae (Klebsiella pneumoniae, strain KPC3, UPMC, MHB2, 18 h, 37°C); 8 µM (≈ 4.37 µg/mL) in the data set with E. Faecium (strain EF23614, UPMC); > 16 µM in the data set on E. Faecium (strain EF24670, UPMC); 1 µM (≈ 0.547 µg/mL) in the data set with A. baumannii (strain AB-A2, UPMC clinical strain, A570, confirmed by 2nd or 3rd trial); > 16 µM against A. baumannii (strain AB-A3, UPMC). Besides, the MIC is > 16 µM with A. baumannii (strain AB-F8, UPMC) and 2 µM (≈ 1.09 µg/mL) against A. baumannii (strain AB-F9, UPMC). Further, the Antibiotic susceptibility profile entry with CDC AR isolates [1] (Acinetobacter baumannii AB273, CDC AR isolate) is given as “R”; with CDC AR isolates [1] (Acinetobacter baumannii AB274, CDC AR isolate), “R”; in the data set on CDC AR isolates [1] (Acinetobacter baumannii AB275, CDC AR isolate), “R”; in the data set on CDC AR isolates [1] (Acinetobacter baumannii AB276, CDC AR isolate), “R”; in the data set on CDC AR isolates [1] (setting [3]), “S”; in the data set with CDC AR isolates [1] (setting [4]) it was “S”. The Antibiotic susceptibility profile result with CDC AR isolates [1] (setting [5]), in the data set on CDC AR isolates [1] (setting [6]), with CDC AR isolates [1] (setting [7]), with CDC AR isolates [1] (setting [8]), with CDC AR isolates [1] (setting [9]) and in the data set with CDC AR isolates [1] (setting [10]) was “S” in each case. The Antibiotic susceptibility profile result in the data set with CDC AR isolates [1] (setting [11]) is recorded as “R”; in the data set with CDC AR isolates [1] (setting [12]) it was “R”; with CDC AR isolates [1] (setting [13]), “R”; with CDC AR isolates [1] (setting [14]) it was “S”; with CDC AR isolates [1] (Pseudomonas aeruginosa PA229, CDC AR isolate) it was “R”; in the data set on CDC AR isolates [1] (Pseudomonas aeruginosa PA230, CDC AR isolate), “R”. Also, the Antibiotic susceptibility profile entry in the data set with CDC AR isolates [1] (Pseudomonas aeruginosa PA231, CDC AR isolate) is “R”; in the data set on CDC AR isolates [1] (Pseudomonas aeruginosa PA232, CDC AR isolate), “S”; with CDC AR isolates [1] (Pseudomonas aeruginosa PA239, CDC AR isolate), “R”.

Take `Cc1onc(-c2ccccc2)c1C(=O)N[C@@H]1C(=O)N2[C@@H]1SC(C)(C)[C@@H]2C(=O)O` [Oxacillin, reference compound]: the Antibiotic susceptibility profile entry with CDC AR isolates [1] (Staphylococcus aureus SA462, CDC AR isolate) is given as “S”; in the data set with CDC AR isolates [1] (Staphylococcus aureus SA463, CDC AR isolate), “S”; in the data set with CDC AR isolates [1] (Staphylococcus aureus SA561, CDC AR isolate), “R”; in the data set on CDC AR isolates [2] it was “S”. The MIC is 8 µM (≈ 3.21 µg/mL) with S. aureus (strain SA12212, UPMC); 4 µM (≈ 1.61 µg/mL) against S. aureus (strain SA18710, UPMC); 0.25 µM (≈ 0.1 µg/mL) against S. aureus (strain SA49775); 4 µM (≈ 1.61 µg/mL) with S. aureus (strain SA-US300); 0.25 µM (≈ 0.1 µg/mL) with E. Faecium (strain EF23614, UPMC); > 16 µM with E. Faecium (strain EF24670, UPMC). Moreover, the MIC in the data set with E. Faecium (strain EF26215, UPMC) was 2 µM (≈ 0.803 µg/mL); in the data set with E. Faecium (strain EF26692, UPMC), 2 µM (≈ 0.803 µg/mL).

Take H-RWVRRVRRVWRRVRRVVRRW-OH [E7]: the % RBC lysis was determined as 5%.

RRVVRRWRRVVRRWVRVWRRVVRR [E3] had a % RBC lysis of 17%. For the same compound, the MIC in the data set on K. pneumoniae worked out at 8 µM.
